The source of these data is patent US20050080076A1 (Xanodyne Pharmacal, Inc., priority 2003, published 2005).

Like-named read-outs stand apart in the source and are kept apart here.

One assay addresses T1, Dopamine D4.2 (Homo sapiens, UniProt P21917, DEL271-302).
T1 sequence (P21917 with tags, fused parts or gaps DEL271-302): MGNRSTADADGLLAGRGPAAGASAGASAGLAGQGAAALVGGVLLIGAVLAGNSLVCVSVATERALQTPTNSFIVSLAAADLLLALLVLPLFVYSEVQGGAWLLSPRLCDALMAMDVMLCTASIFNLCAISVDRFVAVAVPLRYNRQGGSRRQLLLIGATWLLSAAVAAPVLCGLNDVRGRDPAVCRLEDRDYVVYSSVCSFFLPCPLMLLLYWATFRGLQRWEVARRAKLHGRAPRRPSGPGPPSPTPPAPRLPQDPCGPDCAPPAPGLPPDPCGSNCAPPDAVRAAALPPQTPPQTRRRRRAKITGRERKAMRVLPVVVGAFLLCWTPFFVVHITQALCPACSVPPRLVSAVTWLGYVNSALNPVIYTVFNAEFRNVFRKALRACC
Briefly: Receptor binding, Dopamine D4.2. The procedure: (§1) Receptor-ligand binding studies were performed as known to one skilled in the art. Compounds evaluated were LMP, the parent compound, the NDM LMP metabolite of LMP, and the sulfoxide metabolite of LMP. These studies verified receptor binding and affinity by the parent compound, as well as identified other potential receptors for the parent compound and its metabolites, and identified and verified receptors and receptor affinity for the metabolites.
(§2) Dopamine receptor affinity included binding to D1, D2, D3, D4, and D5 receptors. Serotonin receptor affinity included binding to 5-HT1A, 5-HT2A, 5-HT2B, 5-HT2, 5-HT5A, 5-HT6, and 5-HT7 receptors. Alpha adrenergic receptor affinity included binding to α1A, α1B, α1C, α2A, α2B, and α2C receptors. Muscarinic receptor affinity included binding to M1, M2, M3, M4, and M5 receptors. Binding to the histamine H1 receptor, the calcium ion channel receptor, and the sodium ion channel receptor were also evaluated. In each of the tables, the following abbreviations are used: LMP indicates the parent compound levomepromazine. NDM LMP indicates the N-desmethyl (N-desmethyl) metabolite. Sulfoxide indicates the sulfoxide metabolite. […] Ki (the inhibition constants of binding) indicate binding affinity.

In a further assay the target is Dopamine D5 (Homo sapiens, UniProt P21918). Briefly: Receptor binding, Dopamine D5. As to the method: as §1, §2
In a further assay the target is Serotonin 5-HT6 (Homo sapiens, UniProt P50406). Briefly: Receptor binding, Serotonin 5-HT6. The procedure:
as §1, §2

The next assay addresses Serotonin 5-HT7 (Homo sapiens, UniProt P34969). Briefly: Receptor binding, Serotonin 5-HT7. As to the method:
as §1, §2

A further assay concerns the target T2, Adrenergic α1B (Homo sapiens, UniProt P35368).
T2 sequence (P35368 1-520): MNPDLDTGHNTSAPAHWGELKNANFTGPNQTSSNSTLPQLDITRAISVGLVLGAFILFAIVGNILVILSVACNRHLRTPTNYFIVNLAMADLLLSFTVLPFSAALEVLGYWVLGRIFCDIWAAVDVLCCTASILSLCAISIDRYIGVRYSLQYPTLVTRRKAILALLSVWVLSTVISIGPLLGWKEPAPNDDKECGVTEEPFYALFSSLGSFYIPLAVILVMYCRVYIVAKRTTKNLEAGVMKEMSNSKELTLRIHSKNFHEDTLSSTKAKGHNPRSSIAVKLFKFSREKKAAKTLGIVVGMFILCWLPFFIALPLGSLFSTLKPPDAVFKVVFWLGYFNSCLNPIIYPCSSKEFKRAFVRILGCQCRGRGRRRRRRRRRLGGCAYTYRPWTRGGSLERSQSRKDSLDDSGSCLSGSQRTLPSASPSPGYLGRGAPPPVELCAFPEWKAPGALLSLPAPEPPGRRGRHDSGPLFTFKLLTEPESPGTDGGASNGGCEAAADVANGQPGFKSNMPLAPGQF
Briefly: Receptor binding, Adrenergic α1B. The procedure: as §1, §2

For another assay, the target named is T3, Muscarinic M1 (Homo sapiens, UniProt P11229).
T3 sequence (P11229 1-460): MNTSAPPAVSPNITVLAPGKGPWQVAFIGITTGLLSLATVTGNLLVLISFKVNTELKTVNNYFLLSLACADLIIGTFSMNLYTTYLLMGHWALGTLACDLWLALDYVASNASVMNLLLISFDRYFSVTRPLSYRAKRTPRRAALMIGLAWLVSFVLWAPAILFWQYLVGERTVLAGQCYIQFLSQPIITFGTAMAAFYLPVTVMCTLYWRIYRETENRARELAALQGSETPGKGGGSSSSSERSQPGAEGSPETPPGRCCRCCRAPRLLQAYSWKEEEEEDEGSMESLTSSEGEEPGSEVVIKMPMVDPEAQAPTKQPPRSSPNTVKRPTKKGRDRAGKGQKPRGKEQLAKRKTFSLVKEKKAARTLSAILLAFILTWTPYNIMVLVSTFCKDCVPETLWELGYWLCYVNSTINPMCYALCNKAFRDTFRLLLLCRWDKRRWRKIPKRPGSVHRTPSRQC
Briefly: Receptor binding, Muscarinic M1. The procedure:
as §1, §2

The next assay has as its target T4, Muscarinic M2 (Homo sapiens, UniProt P08172).
T4 sequence (P08172 1-466): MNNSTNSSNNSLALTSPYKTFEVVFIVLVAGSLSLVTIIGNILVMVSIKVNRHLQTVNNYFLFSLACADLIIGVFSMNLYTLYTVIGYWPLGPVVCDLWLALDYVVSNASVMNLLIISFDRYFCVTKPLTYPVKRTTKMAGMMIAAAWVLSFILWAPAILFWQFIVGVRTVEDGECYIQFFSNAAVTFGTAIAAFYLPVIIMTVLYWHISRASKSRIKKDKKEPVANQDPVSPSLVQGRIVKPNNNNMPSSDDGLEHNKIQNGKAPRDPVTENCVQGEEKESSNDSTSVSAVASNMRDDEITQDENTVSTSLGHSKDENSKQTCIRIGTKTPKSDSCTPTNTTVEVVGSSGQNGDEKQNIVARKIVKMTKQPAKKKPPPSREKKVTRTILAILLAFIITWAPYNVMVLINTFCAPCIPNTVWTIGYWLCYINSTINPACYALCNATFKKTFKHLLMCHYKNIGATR
Briefly: Receptor binding, Muscarinic M2. As to the method:
as §1, §2

For another assay, the target named is Muscarinic M3 (Homo sapiens, UniProt P20309). Briefly: Receptor binding, Muscarinic M3. The procedure:
as §1, §2

In a further assay the target is Calcium Channel. Briefly: Receptor binding, Calcium Channel. The procedure:
as §1, §2

A further assay has as its target Sodium Channel. Briefly: Receptor binding, Sodium Channel. Also noted: key to Relative Affinity: ≧ indicates greater or equal affinity; = indicates about the same affinity; − indicates no affinity. As to the method: as §1, §2
A further assay deals with α1 adrenergic receptors. Briefly: Receptor affinity summary, α1 adrenergic receptors. The following applies: for Relative Affinity: α1-Adrenergic; for binding to all α1 adrenergic receptors (in words): α1A, α1B, and α1C. It is filed as binding. The procedure: as §1, §2
A further assay relates to muscarinic receptors. Briefly: Receptor affinity summary, muscarinic receptors. The assay is classed as binding. The following applies: for Relative Affinity: Muscarinic; for binding affinity to muscarinic receptors (in words): all receptors. As to the method: as §1, §2

Sequence of Muscarinic M3 (P20309 whole entry): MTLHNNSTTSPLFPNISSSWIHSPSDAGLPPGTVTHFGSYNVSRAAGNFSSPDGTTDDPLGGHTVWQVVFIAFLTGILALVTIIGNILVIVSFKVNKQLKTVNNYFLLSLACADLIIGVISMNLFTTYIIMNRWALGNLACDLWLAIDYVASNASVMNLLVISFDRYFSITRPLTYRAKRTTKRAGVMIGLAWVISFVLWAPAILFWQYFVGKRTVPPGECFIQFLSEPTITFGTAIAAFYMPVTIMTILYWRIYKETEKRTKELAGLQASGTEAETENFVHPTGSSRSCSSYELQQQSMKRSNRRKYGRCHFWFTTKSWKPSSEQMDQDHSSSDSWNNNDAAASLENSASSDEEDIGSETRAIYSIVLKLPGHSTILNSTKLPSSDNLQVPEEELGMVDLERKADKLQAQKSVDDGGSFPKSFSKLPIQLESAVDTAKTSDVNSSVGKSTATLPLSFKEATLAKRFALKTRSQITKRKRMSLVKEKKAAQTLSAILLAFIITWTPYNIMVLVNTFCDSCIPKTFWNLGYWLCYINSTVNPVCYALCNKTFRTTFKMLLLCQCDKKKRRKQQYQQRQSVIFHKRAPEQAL
Sequence of Dopamine D5 (P21918 whole entry): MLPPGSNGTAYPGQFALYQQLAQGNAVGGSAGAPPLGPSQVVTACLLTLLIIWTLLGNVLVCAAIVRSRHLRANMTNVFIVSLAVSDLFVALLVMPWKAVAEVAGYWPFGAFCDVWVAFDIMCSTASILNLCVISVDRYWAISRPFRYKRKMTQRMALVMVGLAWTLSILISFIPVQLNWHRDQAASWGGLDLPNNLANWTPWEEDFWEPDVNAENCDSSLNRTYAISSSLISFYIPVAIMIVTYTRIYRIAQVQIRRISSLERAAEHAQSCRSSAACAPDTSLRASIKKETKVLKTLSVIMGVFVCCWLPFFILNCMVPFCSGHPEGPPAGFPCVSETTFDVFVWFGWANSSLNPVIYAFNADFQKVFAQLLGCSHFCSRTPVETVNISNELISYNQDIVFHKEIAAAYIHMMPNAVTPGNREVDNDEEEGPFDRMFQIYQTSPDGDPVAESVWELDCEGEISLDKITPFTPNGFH
Sequence of Serotonin 5-HT7 (P34969 whole entry): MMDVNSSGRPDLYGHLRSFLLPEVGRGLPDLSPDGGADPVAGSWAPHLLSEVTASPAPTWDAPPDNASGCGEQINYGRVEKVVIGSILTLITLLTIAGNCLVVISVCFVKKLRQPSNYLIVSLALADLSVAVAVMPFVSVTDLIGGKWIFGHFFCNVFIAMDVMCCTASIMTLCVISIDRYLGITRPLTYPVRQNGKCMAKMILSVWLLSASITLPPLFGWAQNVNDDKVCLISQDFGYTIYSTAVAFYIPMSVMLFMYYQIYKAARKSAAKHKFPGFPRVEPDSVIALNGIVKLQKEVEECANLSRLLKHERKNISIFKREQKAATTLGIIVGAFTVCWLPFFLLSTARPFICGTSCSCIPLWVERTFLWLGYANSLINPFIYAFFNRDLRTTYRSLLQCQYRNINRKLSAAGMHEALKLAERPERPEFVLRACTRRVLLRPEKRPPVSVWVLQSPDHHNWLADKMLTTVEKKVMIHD
Sequence of Serotonin 5-HT6 (P50406 whole entry): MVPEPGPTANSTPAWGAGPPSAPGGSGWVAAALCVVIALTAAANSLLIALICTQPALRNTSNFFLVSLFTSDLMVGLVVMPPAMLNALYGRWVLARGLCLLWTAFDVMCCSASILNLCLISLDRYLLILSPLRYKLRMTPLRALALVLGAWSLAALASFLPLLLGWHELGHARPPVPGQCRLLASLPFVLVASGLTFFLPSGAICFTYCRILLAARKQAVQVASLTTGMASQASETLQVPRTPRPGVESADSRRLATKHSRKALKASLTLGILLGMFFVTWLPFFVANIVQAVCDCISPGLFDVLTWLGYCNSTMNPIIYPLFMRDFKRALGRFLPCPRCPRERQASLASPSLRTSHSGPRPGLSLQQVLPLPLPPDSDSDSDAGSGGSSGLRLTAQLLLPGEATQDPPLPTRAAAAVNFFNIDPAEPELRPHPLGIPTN

With `COc1ccc2c(c1)N(C[C@H](C)CN(C)C)c1ccccc1[S+]2[O-]` (stereo partly drawn) [Sulfoxide, levomepromazine sulfoxide], the Ki was more than 10000 nM at Dopamine D4.2; more than 10000 nM on Dopamine D5; more than 10000 nM at Serotonin 5-HT6; more than 10000 nM at Serotonin 5-HT7; 80 nM at Adrenergic α1B; 726 nM on Muscarinic M1. Besides, the inhibition constant (Ki) at Muscarinic M2 was 1290 nM; at Muscarinic M3 it was 551 nM; on Calcium Channel, 9090 nM; on Sodium Channel, “no affinity was detected”; at Sodium Channel (read-out: Ki), more than 10000 nM. Moreover, the “Relative Affinity” value was “NDM LMP > LMP > sulfoxide” in the assay on Calcium Channel, “−” in the assay on Sodium Channel, “LMP = NDM LMP ≧ sulfoxide” in the assay with α1 adrenergic receptors and “LMP = NDM LMP > sulfoxide” with muscarinic receptors. Besides, the “binding to all α1 adrenergic receptors (in words)” value in the assay with α1 adrenergic receptors is “high binding”. Further, the “binding affinity to muscarinic receptors (in words)” value (shortened to “binding affinity”) in the assay on muscarinic receptors is given as “low affinity”.

As to `COc1ccc2c(c1)N(C[C@H](C)CN(C)C)c1ccccc1S2` [LMP, Levomepromazine], the Ki was 769 nM at Dopamine D4.2; 180 nM at Dopamine D5; 82 nM at Serotonin 5-HT6; 24 nM on Serotonin 5-HT7; 2 nM at Adrenergic α1B; 43 nM at Muscarinic M1. Also, the inhibitory constant (Ki) was 263 nM on Muscarinic M2, 39 nM on Muscarinic M3, 407 nM at Calcium Channel and 1090 nM at Sodium Channel (read-out: Ki). Moreover, the “binding to all α1 adrenergic receptors (in words)” value with α1 adrenergic receptors is “high binding”. The “binding affinity” value in the assay on muscarinic receptors was “moderate-to-high affinities”.

Turning to `CNCC(C)CN1c2ccccc2Sc2ccc(OC)cc21` (stereo not drawn) [NDM LMP, R(+) 2-methoxy-10-2-methyl-3-monomethylaminopropyl phenothiazine], the Ki at Dopamine D4.2 worked out at 3110 nM; at Dopamine D5, 243 nM; at Serotonin 5-HT6 it was 98 nM; on Serotonin 5-HT7, 18 nM; on Adrenergic α1B it was 2 nM; at Muscarinic M1, 54 nM. Further, the Ki at Muscarinic M2 amounted to 325 nM; at Muscarinic M3 it was 47 nM; on Calcium Channel, 49 nM; on Sodium Channel (read-out: Ki), 643 nM. The “Relative Affinity” value in the assay with Calcium Channel is “NDM LMP > LMP > sulfoxide”; with Sodium Channel, “NDM LMP > LMP”; with α1 adrenergic receptors, “LMP = NDM LMP ≧ sulfoxide”; in the assay with muscarinic receptors, “LMP = NDM LMP > sulfoxide”. In addition, in the assay with α1 adrenergic receptors, the “binding to all α1 adrenergic receptors (in words)” value is listed as “high binding”. Moreover, the “binding affinity” value in the assay with muscarinic receptors is on record as “moderate-to-high affinities”.

In general, Ki refers to a measure of affinity in units of concentration, obtained from inhibition or displacement.
